Assay results: patent US5478928A, “2',3'-dideoxy-4'-thioribonucleosides and synthetic precursors thereof” (priority 1993, dated 1995)
Converted amounts (≈) assume the structure as drawn. Like-named read-outs stand apart in the source and are kept apart here.

Assays:
[1] = tested on: CEM cells infected with HIV virus (HIV-1 isolates IIIB and/or RF); test: Inhibition of HIV cytopathogenic effects (CPE) in CEM cells (MTT); format: cell-based; conditions: for SI (selectivity index): TC25 divided by the ID50; for TAI (total antiviral index): area between the cytotoxicity and the antiviral curves; for IC50: Human immunodeficiency virus 1, IIIB, CCRF-CEM, read-out: IC50 (minimum drug concentration that inhibited CPE by 50%)
Experimental: (§1) Compounds of the present invention are readily screened for anti-HIV activity by the following standard screening assay in CEM and MT2 cells.
(§2) 1. Compound dilution and delivery to the plates. Test compounds are solubilized in the appropriate vehicle such as distilled water, DMSO, methyl alcohol, or other vehicle. The maximum solubility is determined as appropriate. Latex gloves, lab coats, and masks are used during all phases of the handling process to prevent exposure to potentially harmful agents. At highest solubility, the test compound is prepared and stored at -20° C. until used by the screening laboratory. The first dilution of each compound is made tube with medium to yield a concentration two-fold that of the highest test concentration. Sterile titer tubes are then used to make serial one half log dilutions of each compound. Following dilution, the diluted compound is added to the appropriate well of a 96-well microtiter plate. Up to 12 dilutions can be conveniently assayed in triplicate on a single plate with all appropriate controls, including cell control, virus control, toxicity control, drug color control, medium control and plastic control. When testing includes only six dilutions, two drugs can be assayed on a single microtiter plate. The test compounds are added to the plate in a final volume of 100 microliters.
(§3) 2. Cells and virus. During the time that the test compound dilutions are prepared, cells are washed and counted. Viability is monitored by trypan blue dye exclusion and assays are not performed if the viability falls below 90%. Cells are maintained in an exponential growth phase and are split 1:2 on the day prior to assay to assure adequate growth rate. For the primary screen, the cell line utilized is CEM cells. […] However, both cell lines are available and being used at all times and can be substituted or used in addition to CEM cells as requested. Unless otherwise indicated, the medium is phenol red-free RPMI 1640 with 10% heat-inactivated fetal calf serum (FBS), glutamine and antibiotics. Cells are propagated at 37° C. in an atmosphere of 5% CO2 in air. The virus employed for this work is HIV-1 isolates IIIB and/or RF prepared by the acute infection process as follows: Briefly, virus infected cells are pelleted on a daily basis beginning at three days postinfection until the virus has killed all of the cells in the culture. Reverse transcriptase activity and p24 ELISA are used to identify pools with the greatest amount of virus. These 24-hour harvests are pooled, filtered and frozen at -90° C. Prior to use in the assay the virus is titered on all available cell lines in order to determine the amount of virus required in the assay. In general, pools produced by the acute virus method require the addition of one microliter of infectious virus per well resulting in the screening of drugs on a multiplicity of infection of 0.01. In this manner enough virus is prepared and frozen to complete over one thousand microtiter plates, allowing the testing of up to two thousand compounds from a single stock. […] Virus infection of the CEM cells is carried in a bulk infection process. The appropriate number of cells required to complete the assay are mixed with infectious virus in a conical centrifuge tube in a small total volume of 1-2 milliliters. Following a one hour incubation the infected cells are brought to the appropriate final concentration of 5×10^4 cells per milliliter with fresh tissue culture medium and 100 microliters are added to the appropriate experimental and virus control wells. Uninfected cells at the same concentration are plated for the toxicity controls and for the cell controls.
(§4) 3. Evaluation of CPE-inhibition. Following the addition of cells and test compounds to the microtiter plate, the plate is incubated for 6 days at 37° C.

CEM cells = test: Cytotoxicity (cell viability) in CEM cells
Experimental: as §1, §2, §3, §4

[2] = tested on: MT-2 cells infected with HIV virus (HIV-1 isolates IIIB and/or RF); test: Inhibition of HIV cytopathogenic effects (CPE) in MT-2 cells (MTT); format: cell-based; conditions: for IC50: Human immunodeficiency virus 1, IIIB; for SI (selectivity index): TC25 divided by the ID50; for TAI (total antiviral index): area between the cytotoxicity and the antiviral curves
Experimental: as §1, §2, §3, §4

MT-2 cells = test: Cytotoxicity (cell viability) in MT-2 cells
Experimental: as §1, §2, §3, §4

AIDS = conditions: cited from earlier work
[3] = CEM cells, means of several experiments
[4] = MT2, MT-2 cells, means of several experiments, read-out: IC50 (minimum drug concentration that inhibited CPE by 50%)
[5] = MT-2 cells, means of several experiments

| SMILES | SI (selectivity index) ([1]; CEM cells) | TAI (total antiviral index) ([1]; CEM cells) | IC50 [1, 3] [µg/mL] | TC25 (minimum drug concentration that reduced cell viability by 25%) (CEM cells; [3]) [µg/mL] | TAI (total antiviral index) ([2]; MT-2 cells) | TC25 (minimum drug concentration that reduced cell viability by 25%) (MT-2 cells; [5]) [µg/mL] | also measured |
| --- | --- | --- | --- | --- | --- | --- | --- |
| Cc1cn([C@H]2C[C@H](N=[N+]=[N-])[C@@H](CO)S2)c(=O)[nH]c1=O | > 222.02 | > 60.15 | 0.45 (≈ 1.59 µM) | > 100 |  |  |  |
| Nc1nc2c(ncn2[C@H]2CC[C@@H](CO)S2)c(=O)[nH]1 [4'-thio-2',3'-dideoxy-guanosine, 4'-Thio-2',3'-dideoxy-guanosine] |  | 0.0 |  | > 100 | 11.0 | > 200 | IC50 [2, 4]: 98 µg/mL (≈ 367 µM); SI (selectivity index) ([2]; MT-2 cells): 1.6 |
| Nc1ccn([C@H]2CC[C@@H](CO)S2)c(=O)n1 [4'-thio-2',3'-dideoxycytidine, 4'-Thio-2',3'-dideoxycytidine] | > 100 | > 65 | 1 (≈ 4.4 µM) | > 100 |  |  |  |
| OC[C@@H]1CC[C@H](n2cnc3c(O)ncnc32)S1 [4'-thio-2',3'-dideoxyinosine, 4'-Thio-2',3'-dideoxyinosine] |  |  |  |  | > 4.0 | > 100 |  |
| Cc1cn([C@H]2CC[C@@H](CO)S2)c(=O)[nH]c1=O [4'-thio-3'-deoxythymidine, 4'-Thio-3'-deoxythymidine] |  | 4.0 |  | > 150 | > 4.0 | > 100 |  |
| Nc1ncnc2c1ncn2[C@H]1CC[C@@H](CO)S1 [4-'-thio-2'3'-dideoxyadenosine, 4'-Thio-2',3'-dideoxyadenosine] |  |  |  |  | > 17 | > 100 | IC50 [2, 4]: 80 µg/mL (≈ 318 µM); SI (selectivity index) ([2]; MT-2 cells): 1.3 |
| Nc1nc(N)c2ncn([C@H]3CC[C@@H](CO)S3)c2n1 [9-(4-Thio-2,3-dideoxy-D-ribofuranosyl)-2,6-diaminopurine] | 2.6 | 21.0 | 37 (≈ 139 µM) | 97.0 (≈ 364 µM) |  |  |  |
| Nc1nc(Cl)nc2c1ncn2[C@H]1CC[C@@H](CO)S1 [9-(4-Thio-2,3-dideoxy-D-ribofuranosyl)-2-chloro-6-aminopurine] |  |  |  | 5.74 (≈ 20.1 µM) |  |  |  |
| OC[C@@H]1CC[C@H](n2cnc3c(Cl)ncnc32)S1 [9-(4-Thio-2,3-dideoxy-D-ribofuranosyl)-6-chloropurine] |  |  |  |  | 0.0 | 21 (≈ 77.6 µM) |  |
| Cc1cn([C@H]2C[C@H](N=[N+]=[N-])[C@@H](CO)O2)c(=O)[nH]c1=O [AZT, 3'-azido-3'-deoxythymidine, reference compound] | > 313 | > 93 |  | > 10 | > 82 | 9.3 (≈ 34.8 µM) | IC50 ([2]; MT2, read-out: IC50 (minimum drug concentration that inhibited CPE by 50%)): 0.14 µg/mL (≈ 0.524 µM); SI (selectivity index) ([2]; MT-2 cells): > 160; IC50 [1]: < 0.03 µg/mL; potency for the treatment of AIDS (AIDS; background): particularly potent; side effects (AIDS; background): undesirable side effects |
| Nc1ccn([C@H]2CC[C@@H](CO)O2)c(=O)n1 [DDC, dideoxycytidine, reference compound] | 120 | > 63 | 0.05 (≈ 0.237 µM) |  | > 52 |  | IC50 [2, 4]: 0.44 µg/mL (≈ 2.08 µM); TC25 (minimum drug concentration that reduced cell viability by 25%) (MT-2 cells; human): > 9.8 µg/mL; TC25 (minimum drug concentration that reduced cell viability by 25%) (CEM cells; human): 5.3 µg/mL (≈ 25.1 µM); side effects (AIDS): undesirable side effects |
| CNc1ncnc2c1ncn2[C@H]1CC[C@@H](CO)S1 [N^6 -Methyl-4'-thio-2',3'-dideoxyadenosine] |  |  |  |  | 1.0 | > 100 |  |
| O=c1[nH]cnc2c1ncn2[C@H]1CC[C@@H](CO)O1 [dideoxyinosine] |  |  |  |  |  |  | side effects (AIDS): undesirable side effects |
